# Test: Waters ACQUITY UPLC BEH C18, 100 × 2.1 mm, 1.7 µm, 40 °C, 0.3 to 0.4 mL/min, estimated dead time 0.63 min; A: water + 0.1% formic acid; B: methanol + 0.1% formic acid; gradient (min/%B) 0/0.5 0.1/0.5 10/80 10.1/99.5 12/99.5
# Details: stereoisomer not certain
row,LC retention time [min],Structure (SMILES)
1,9.09,CC(C)=CCc1cc(C2CC(=O)c3c(O)cc(O)c(CC=C(C)C)c3O2)cc(O)c1O (stereo unspecified)
2,4.3,COc1cc(C=CC(=O)NC=Cc2ccc(O)cc2)ccc1O
3,8.56,CCCCC(=O)OC1C(CO)OC(OC2(CO)OC(CO)C(OC(C)=O)C2O)C(OC(=O)CCCC)C1OC(=O)CCCC (stereo unspecified)
4,3.07,C=C1CC23CC4C5C6(C)CC(O)CC57C(C2C(O)C1C(O)C37)N4C6 (stereo unspecified)
5,7.84,CC(C)=CCc1c(O)cc(O)c(CC=C(C)C)c1CCc1ccc(O)c(O)c1
6,2.48,CC(C)C(=O)OC(CC(=O)[O-])C[N+](C)(C)C (stereo unspecified)
7,3.35,O=c1cc(-c2ccc(O)c(O)c2)oc2c(C3OCC(O)C(O)C3O)c(O)c(C3OC(CO)C(O)C(O)C3O)c(O)c12 (stereo unspecified)
8,7.01,COc1c(CC=C(C)C)c(O)cc2oc(=O)c(-c3ccc(O)cc3O)cc12
9,6.2,CC(C)CC(NC(=O)Cc1c[nH]c2ccccc12)C(=O)O (stereo unspecified)
10,5.32,O=C(C=Cc1ccc(O)cc1)OC1C(Oc2c(-c3ccc(O)cc3)oc3cc(O)cc(O)c3c2=O)OC(CO)C(O)C1O (stereo unspecified)
11,5.2,CC1=C(CCC(C)COC2OC(CO)C(O)C(O)C2OC2OC(C)C(O)C(O)C2O)OC2CC3C4CC=C5CC(O)CC(OC6OC(CO)C(O)C(O)C6O)C5(C)C4CCC3(C)C12 (stereo unspecified)
12,4.21,COc1cc(C=CC(=O)O)cc(OC)c1O
13,4.07,C=CC1C(OC2OC(CO)C(O)C(O)C2O)OC=C2C(=O)N3Cc4c([nH]c5ccccc5c4=O)C3CC21 (stereo unspecified)
14,4.49,O=C(O)C1OC(Oc2cc3oc(-c4ccccc4)cc(=O)c3c(O)c2O)C(O)C(O)C1O (stereo unspecified)
15,4.79,COc1cc(O)c2c(=O)c(OC3OC(COC4OC(C)C(O)C(OC5OC(C)C(O)C(O)C5O)C4O)C(O)C(O)C3O)c(-c3ccc(O)c(O)c3)oc2c1 (stereo unspecified)
16,4.67,COc1ccc(-c2coc3cc(OC4OC(COC(=O)CC5CCNCC5)C(O)C(O)C4O)c(OC)cc3c2=O)cc1 (stereo unspecified)
17,4.88,CC1CCC2(C(=O)OC3OC(COC4OC(CO)C(OC5OC(C)C(O)C(O)C5O)C(O)C4O)C(O)C(O)C3O)CCC3(C)C(=CCC4C5(C)CC(O)C(O)C(C)(CO)C5C(O)CC43C)C2C1C (stereo unspecified)
18,2.67,NCCCCNC(=O)C=Cc1ccc(O)cc1
19,2.98,C=CCSCC(NC(=O)CCC(N)C(=O)O)C(=O)O (stereo unspecified)
20,5.06,O=C(C=Cc1ccc(O)cc1)NCCc1ccc(O)cc1
21,4.24,COC(=O)C1CC23CCCN4CCC5(c6ccccc6NC15C2C)C43 (stereo unspecified)
22,5.99,CC1CCC2C(C)C3C(CC4C5CC=C6CC(O)CCC6(C)C5CCC43C)N2C1 (stereo unspecified)
23,3.56,O=C1c2ccc(O)cc2OCC1c1ccc(O)c(OC2OC(CO)C(O)C(O)C2O)c1 (stereo unspecified)

row,LC retention time [min],Structure (SMILES)
1,3.08,COc1cc(C=CC(=O)NCCCCC(N)C(=O)O)ccc1O (stereo unspecified)
2,8.02,COc1ccc(-c2coc3cc(O)c(CC=C(C)C)c(O)c3c2=O)cc1
3,3.72,C=CC1C(OC2OC(CO)C(O)C(O)C2O)OC=C(C(=O)O)C1Cc1nccc2c1[nH]c1ccccc12 (stereo unspecified)
4,3.3,O=c1cc(-c2ccc(O)cc2)oc2c(C3OC(CO)C(O)C(O)C3O)c(O)c(C3OC(CO)C(O)C(O)C3O)c(O)c12 (stereo unspecified)
5,3.67,CC1OC(Oc2cc(O)c3c(=O)c(OC4OC(C)C(O)C(O)C4O)c(-c4ccc(O)c(O)c4)oc3c2)C(O)C(O)C1O (stereo unspecified)
6,4.65,CC1CCC2C(C)C3C(CC4C5CC=C6CC(OC7OC(CO)C(O)C(OC8OC(CO)C(O)C(O)C8O)C7O)CCC6(C)C5CCC43C)N2C1 (stereo unspecified)
7,9.49,CCCCCC(=O)OC1C(OC2(CO)OC(CO)C(OC(C)=O)C2O)OC(CO)C(OC(=O)CCCC)C1OC(=O)CCCCC (stereo unspecified)
8,6.26,CC(=O)OCC1OC(OC2C(O)COC(OC3C(O)C(C)(C)CC4C5=CCC6C7(C)CCC(OC8OC(C(=O)O)C(O)C(O)C8OC8OC(CO)C(O)C(O)C8OC8OC(CO)C(O)C(O)C8O)C(C)(CO)C7CCC6(C)C5(C)CCC43C)C2O)C(OC(C)=O)C(OC(C)=O)C1OC(C)=O (stereo unspecified)
9,2.93,COc1cc2c(cc1OC)C(C)=NCC2
10,6.14,CCC(C)C(NC(=O)Cc1c[nH]c2ccccc12)C(=O)O (stereo unspecified)
11,2.8,COc1cc(-c2oc3cc(OC4OC(CO)C(O)C(O)C4O)cc(O)c3c(=O)c2OC2OC(CO)C(O)C(O)C2O)cc(OC2OC(CO)C(O)C(O)C2O)c1O (stereo unspecified)
12,10.1,CCCCCCC(O)CC=CCCCCCCCC(=O)O (stereo unspecified)
13,2.72,CC(C)CC(N)C(=O)N1CCCC1C(=O)O (stereo unspecified)
14,4.76,COc1cc(CC(CO)C(CO)Cc2ccc(O)c(OC)c2)ccc1O (stereo unspecified)
15,3.65,O=c1c(-c2ccc(O)cc2)coc2cc(OC3OC(CO)C(O)C(O)C3O)ccc12 (stereo unspecified)
16,3.96,COc1ccc2cc1Oc1ccc(cc1)CC1=NCCc3cc(OC)c(cc31)Oc1c(OC)c(OC)c(O)c3c1C(C2)N(C)CC3 (stereo unspecified)
17,5.58,COc1cc(O)c2c(c1)OC(c1ccc(O)c(-c3c(O)cc(O)c4c(=O)cc(-c5ccc(O)cc5)oc34)c1)CC2=O (stereo unspecified)
18,3.55,O=c1cc(-c2ccc(O)cc2)oc2c(C3OC(CO)C(O)C3O)c(O)c(C3OC(CO)C(O)C(O)C3O)c(O)c12 (stereo unspecified)
19,4.23,COc1cc(C=CC(=O)OC(CC(=O)O)C(=O)O)cc(OC)c1O (stereo unspecified)
20,4.57,COc1cc(C(O)C(COC2OC(CO)C(O)C(O)C2O)Oc2c(OC)cc(-c3cc(=O)c4c(O)cc(O)cc4o3)cc2OC)ccc1O (stereo unspecified)
21,2.5,OCC1OC(Oc2cc3c(OC4OC(CO)C(O)C(O)C4O)cc(O)cc3[o+]c2-c2ccc(O)c(O)c2)C(O)C(O)C1O (stereo unspecified)
22,7.51,CC(C)=CCc1c(O)ccc2c1OCC(c1ccc(O)cc1O)C2=O (stereo unspecified)
23,2.35,O=C(C=Cc1ccc(O)cc1)Oc1cc(O)c2c(=O)c(OC3OC(CO)C(O)C(O)C3O)c(-c3ccc(O)cc3)oc2c1 (stereo unspecified)

row,LC retention time [min],Structure (SMILES)
1,2.59,COc1ccc2c(c1)OC(O)C(=O)N2O (stereo unspecified)
2,4.85,C[n+]1cc2c3c(ccc2c2ccc4cc5c(cc4c21)OCO5)OCO3
3,4.8,COc1cc(-c2cc(=O)c3c(O)cc(OC4OC(COC(=O)CC(=O)O)C(O)C(O)C4O)cc3o2)ccc1O (stereo unspecified)
4,5.18,COc1ccc(CC2COC(=O)C2Cc2ccc(OC3OC(CO)C(O)C(O)C3O)c(OC)c2)cc1OC (stereo unspecified)
5,4.34,CC(CCC1(O)OC2CC3C4CC=C5CC(O)CC(OC6OC(CO)C(O)C(O)C6O)C5(C)C4CCC3(C)C2C1C)COC1OC(CO)C(O)C(O)C1OC1OC(C)C(O)C(O)C1O (stereo unspecified)
6,8.63,C=CCc1ccc(O)c(-c2ccc(O)c(CC=C)c2)c1
7,3.84,COc1cc(CC(=O)O)ccc1O
8,5.05,COc1ccc(-c2coc3cc(OC4OC(CO)C(O)C(O)C4O)c(OC)cc3c2=O)cc1 (stereo unspecified)
9,4.54,O=C(C=Cc1ccc(O)c(O)c1)OC1CC2(O)CC(OC2=O)C1OC(=O)C=Cc1ccc(O)c(O)c1 (stereo unspecified)
10,2.65,OCC1OC(Oc2cc3c(O)cc(O)cc3[o+]c2-c2cc(O)c(O)c(O)c2)C(OC2OCC(O)C(O)C2O)C(O)C1O (stereo unspecified)
11,6.63,COc1cc(CC2C(=O)OCC2Cc2ccc(OC)c(OC)c2)ccc1O (stereo unspecified)
12,3.44,O=c1cc(-c2ccc(O)c(O)c2)oc2cc(O)c(C3OC(CO)C(O)C(O)C3OC3OC(CO)C(O)C(O)C3O)c(O)c12 (stereo unspecified)
13,4.16,CS(=O)CCCCCCCC#N (stereo unspecified)
14,3.05,CCC(C)C(N)C(=O)NC(C(=O)O)C(C)CC (stereo unspecified)
15,5.97,O=c1oc2cc(O)ccc2c2oc3cc(O)ccc3c12
16,4.04,CC1OC(OC2C(Oc3cc(O)c4c(c3)OC(c3ccc(O)c(O)c3)CC4=O)OC(CO)C(O)C2O)C(O)C(O)C1O (stereo unspecified)
17,3.72,O=c1c(O)c(-c2ccc(O)c(O)c2)oc2cc(OC3OC(CO)C(O)C(O)C3O)c(O)c(O)c12 (stereo unspecified)
18,1.88,OCC1OC(Oc2ccc(O)cc2)C(O)C(O)C1O (stereo unspecified)
19,2.39,CC(CSCC(NC(=O)CCC(N)C(=O)O)C(=O)O)C(=O)O (stereo unspecified)
20,9.97,CCCCCC(=O)OC1C(CO)OC(OC2(CO)OC(CO)C(OC(C)=O)C2O)C(OC(=O)CCCCC)C1OC(=O)CCCCC (stereo unspecified)
21,3.31,C=CC1CN2CCC1CC2C(O)c1ccnc2ccc(OC)cc12 (stereo unspecified)
22,2,Nc1[nH]c(=O)[nH]c(=O)c1OC1OC(CO)C(OC2OC(CO)C(O)C(O)C2O)C(O)C1O (stereo unspecified)
23,3.82,O=C(O)C1C(O)CCC2CN3CCc4c([nH]c5ccccc45)C3CC21 (stereo unspecified)

row,Structure (SMILES),LC retention time [min]
1,COC(=O)C1(O)CC23CCCN4CCC5(c6ccc7c(c6NC15CC2)OCO7)C43 (stereo unspecified),3.61
2,CCC1CN2CCc3cc(OC)c(OC)cc3C2CC1CC1NCCc2cc(O)c(OC)cc21 (stereo unspecified),2.98
3,O=C(O)c1cc2c(c3c1c([N+](=O)[O-])cc1ccc(O)cc13)OCO2,5.96
4,CCC1CN2CCC3(O)C(=Nc4cccc(OC)c43)C2CC1C(=COC)C(=O)OC (stereo unspecified),4.26
5,CCC1CN2CCc3cc(OC)c(OC)cc3C2CC1CC1NCCc2cc(OC)c(OC)cc21 (stereo unspecified),3.41
6,CN1CCc2cc3c(c4c2C1Cc1ccccc1-4)OCO3 (stereo unspecified),4.89
7,C=CC1CN2CCC1CC2C(O)c1ccnc2ccccc12 (stereo unspecified),3.09
8,CCC1C2CCN3CCC4(C(=C2C(=O)OC)Nc2ccccc24)C13 (stereo unspecified),4.92
9,COCC12CCC(OC)C34C5CC6(O)C(OC)C(O)C(OC(C)=O)(C5C6OC(=O)c5ccccc5)C(C(OC)C13)C4N(C)C2 (stereo unspecified),5.97
10,C=CC12CN(C)C3C4COC(CC41)C1(C(=O)Nc4ccccc41)C32 (stereo unspecified),3.21
11,C=C(C)C1CNC(C(=O)O)C1CC(=O)O (stereo unspecified),2.44
12,CCC=CCC=CC=CC(CCCCCCCC(=O)O)OO (stereo unspecified),6.77

# Source: the RepoRT retention time repository
